Experimental findings from ChEMBL document CHEMBL4261502, “Histone lysine methyltransferase structure activity relationships that allow for segregation of G9a inhibition and anti-Plasmodium activity” (Medchemcomm, 2017) are described below.

Usually IC50 stands for the point on the concentration scale where inhibition reaches its midpoint. Low readings indicate higher potency, high ones lower potency.

For the experiment, the system named is Plasmodium falciparum. Briefly: Antiplasmodial activity against Plasmodium falciparum 3D7 after 3 days by SYBR green1 dye based assay. The conditions noted are these: 3D7, 72 h. It counts as functional, organism-based.
On to `COc1cc2c(NC3CCN(C)CC3)nc(N3CCCN(C)CC3)nc2cc1OCc1ccccc1`, for which the IC50 worked out at 43 nM.

Molecule `COc1cc2nc(N3CCCN(C)CC3)nc(NC3CCN(C)CC3)c2cc1OC` came in with a half-inhibitory concentration (IC50) greater than 300 nM.

For `COc1cc2c(NC3CCN(C)CC3)nc(N3CCCN(C)CC3)nc2cc1OCCCN(C)C`, the IC50 is greater than 2000 nM.

For the molecule `COc1cc2c(NC3CCN(C)CC3)nc(N3CCCN(C)CC3)nc2cc1OCCN(C)C`, the IC50 is greater than 2000 nM.

In turn, `COc1cc2c(NC3CCN(C)CC3)nc(N3CCCN(C)CC3)nc2cc1OCCCN1CCCC1` came in with a concentration for half-maximal inhibition (IC50) greater than 2000 nM.

For the molecule `COc1cc2c(NC3CCN(C)CC3)nc(N3CCCN(C)CC3)nc2cc1OCCCN1CCCCC1`, the IC50 was greater than 2000 nM.

Consider `COc1cc2nc(N3CCN(C)CC3)nc(NC3CCN(C)CC3)c2cc1OC`, for which the IC50 was greater than 300 nM.

`COc1cc2nc(N3CCCN(C)CC3)nc(NC3CCN(Cc4ccccc4)CC3)c2cc1OC` returned an IC50 of 43 nM.
